The values below are quoted from earlier work in US20050227929A1, “Combination therapy comprising a Cox-2 inhibitor and an antineoplastic agent” (priority 2003, published 2005).

The conditions of series [1]: human, in vivo.
Series [2] concerns tumors. As to conditions: tumor-bearing mice received 225-300 μg/kg over 5 days.

Like-named read-outs stand apart in the source and are kept apart here. Where a SMILES comes first, the peptide text is derived from it.

Regarding `N[C@@H](CCC(=O)O)C(=O)N[C@@H](Cc1c[nH]c2ccccc12)C(=O)O` [IM 862, L-alpha-glutamyl-L-tryptophan] (H-Glu-Trp-OH), the Toxicity entry (in vivo) was “no hematological”.
Turning to `Nc1ccn([C@@H]2O[C@H](CO)[C@@H](O)/C2=C\F)c(=O)n1` [tezacitabine], the Toxicity result in series [1] is recorded as “generally”.
Turning to `O=S1(=O)CCN(CN2CCS(=O)(=O)NC2)CN1` [taurolidine, 4,4′-methylenebis[tetrahydro-2H-1,2,4-thiadiazine]1,1,1′,1′-tetraoxide], the “Dosage: tolerability” value (in vivo, 350 mg/kg/day) is reported as “well tolerated”.
Consider `Cc1ccc2nc(N)[nH]c(=O)c2c1Sc1ccncc1` [nolatrexed, 2-amino-6-methyl-5-(4-pyridinylthio)-4(1H)-quinazolinone], for which the “Dosage: tolerability” value in series [1] is “tumors is well”.
In the case of `COc1ccc(NS(=O)(=O)c2c(F)c(F)c(F)c(F)c2F)cc1F` [T138067, 2,3,4,5,6-pentafluoro-N-(3-fluoro-4-methoxyphenyl)benzenesulfonamide], the “Dosage: tolerability” value (up to 440 mg/m^2 by 3-hour infusion every 4 weeks) is listed as “well tolerated”.
Regarding `Cc1occc(=O)c1[O-].Cc1occc(=O)c1[O-].Cc1occc(=O)c1[O-].[Ga+3]` [gallium maltolate], the Toxicity result (in vivo) was “good safety”.
With `CNC(=O)c1cc(Oc2ccc(NC(=O)Nc3ccc(Cl)c(C(F)(F)F)c3)cc2)ccn1` [BAY-439006], the Toxicity entry (dosage listed: 50-400 mg/day) is reported as “well tolerated”.
As for `CC(C)[C@H]1C(=O)N[C@@H](CCCN=C(N)N)C(=O)NCC(=O)N[C@@H](CC(=O)O)C(=O)N[C@H](Cc2ccccc2)C(=O)N1C` [cilengitide, cyclo(L-arginylglycyl-L-alpha-aspartyl-D-phenylalanyl-N-methyl-L-valyl)], in series [1], the Toxicity entry was “well tolerated and safe”.

B1: SB-408075 (conjugate, chains of the INN, looked up)
VH: QVQLVQSGAEVKKPGETVKISCKASDYTFTYYGMNWVKQAPGQGLKWMGWIDTTTGEPTYAQKFQGRIAFSLETSASTAYLQIKSLKSEDTATYFCARRGPYNWYFDVWGQGTTVTVSS
VL: DIVMTQSPLSVPVTPGEPVSISCRSSKSLLHSNGNTYLYWFLQRPGQSPQLLIYRMSNLVSGVPDRFSGSGSGTAFTLRISRVEAEDVGVYYCLQHLEYPFTFGPGTKLELK
modifications: DM1 maytansinoid payload
As to B1, in series [2], the “complete responses seen in % of animals” value is “in 100% of”.
